Structures are written as SMILES. pEC50: −log10 of the molar value.

In the first experiment the test system is parasites (ring stage parasites, parasite growth). As to the kind of experiment: Parasite LDH growth assay (Parasite Assay), antiparasite potency. Type of experiment: cell-based. The settings on record: 72 h, 72 hours growth, LDH readout; Table 3. An outline of the steps:
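Ring-stage culture was adjusted to 0.7% parasitemia and 2% haematocrit in bicarbonate-buffered RPMI-Hepes with heat-inactivated human serum and 0.5% albumax, then added to compound. Plates were incubated 72 h at 37 °C in gassed humidified boxes, frozen at −80 °C overnight and thawed, and growth was read by LDH assay.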
Take `COCC[C@H]([C@@H]1C[C@H]1C(=O)N[C@@H]1CC(C)(C)Oc2c(F)cc(F)cc21)N1C(=N)NC(C)(C)CC1=O` [Example 113A]: the pEC50 – broadly, the EC50 on a negative log10 scale, so that one unit is a factor of ten – is 7.72.

With `COCC[C@H]([C@@H]1C[C@H]1C(=O)N[C@H]1CC(C)(C)Oc2c(F)cc(F)cc21)N1C(=N)NC(C)(C)CC1=O` [Example 113B], the pEC50 is 8.12. This pEC50 lies 0.40 log units higher than the previous one.

The compound `COCC[C@H]([C@@H]1C[C@H]1C(=O)N[C@@H]1CC(C)(C)Oc2c(C(F)(F)F)ccc(F)c21)N1C(=N)NC(C)(C)CC1=O` [Example 114A] showed a negative-log EC50 (pEC50) of 7.05.

The compound `COCC[C@H]([C@@H]1C[C@H]1C(=O)N[C@H]1CC(C)(C)Oc2c(C(F)(F)F)ccc(F)c21)N1C(=N)NC(C)(C)CC1=O` [Example 114B] showed a pEC50 of 8.29.

For the compound `CC1(C)CC(=O)N([C@H](c2cccnc2)[C@@H]2C[C@H]2C(=O)N[C@@H]2CC(C)(C)Oc3c(C(F)(F)F)ccc(F)c32)C(=N)N1` [Example 115A], the pEC50 is 8.18.

In turn, `CC1(C)CC(=O)N([C@H](c2cccnc2)[C@@H]2C[C@H]2C(=O)N[C@H]2CC(C)(C)Oc3c(C(F)(F)F)ccc(F)c32)C(=N)N1` [Example 115B] gave a pEC50 of 9.00.

`COCC[C@H]([C@@H]1C[C@H]1C(=O)N[C@H]1CC(C)(C)Oc2cccc(Cl)c21)N1C(=N)NC(C)(C)CC1=O` [Example 116A] gave a pEC50 of 9.10.

On to `COCC[C@H]([C@@H]1C[C@H]1C(=O)N[C@@H]1CC(C)(C)Oc2cccc(Cl)c21)N1C(=N)NC(C)(C)CC1=O` [Example 116B], for which the negative-log EC50 (pEC50) is 7.74.

The compound `CC1(C)CC(=O)N(C[C@@H]2C[C@H]2C(=O)N[C@H]2CC(C)(C)Oc3cccc(OC(F)(F)F)c32)C(=N)N1` [Example 118] showed a negative logarithm of the EC50 (pEC50) of 7.20.

For the compound `CC1(C)CC(=O)N(C[C@@H]2C[C@H]2C(=O)N[C@H]2CC(C)(C)Oc3cccc(Cl)c32)C(=N)N1` [Example 119], the negative logarithm of the EC50 (pEC50) was 7.59.

`CC1(C)CC(=O)N([C@H](c2cccnc2)[C@@H]2C[C@H]2C(=O)N[C@H]2CC(C)(C)Oc3ccc(Cl)cc32)C(=N)N1` [Example 120] showed a pEC50 of 9.00.

For `CC1(C)CC(=O)N([C@H](c2cccnc2)[C@@H]2C[C@H]2C(=O)NC2CC(C)(C)Oc3c(Cl)cccc32)C(=N)N1` (stereo partly drawn) [Example 121A], the negative-log EC50 (pEC50) is 8.60.

On to `CC1(C)CC(=O)N([C@H](c2cccnc2)[C@@H]2C[C@H]2C(=O)NC2CC(C)(C)Oc3c(F)cc(F)cc32)C(=N)N1` (stereo partly drawn) [Example 122A], for which the pEC50 was 8.64.

In the case of `CC[C@]1(C)CC(=O)N([C@H](CCOC)[C@@H]2C[C@H]2C(=O)N[C@H]2CC(C)(C)Oc3ccc(C)cc32)C(=N)N1` [Example 123], the negative-log EC50 (pEC50) is 8.70.

The compound `CC[C@]1(C)CC(=O)N([C@H](CCOC)[C@@H]2C[C@H]2C(=O)N[C@H]2CC(C)(C)Oc3ccc(Cl)cc32)C(=N)N1` [Example 124] showed a negative-log EC50 (pEC50) of 9.10. Compared with the last compound, the pEC50 is 0.40 log units higher.

In turn, `CC1(C)CC(=O)N(C[C@@H]2C[C@H]2C(=O)NC2CC(C)(C)Oc3ccc(OC(F)(F)F)cc32)C(=N)N1` (stereo partly drawn) [Example 125A] showed a pEC50 of 6.64.

The compound `COCC[C@H]([C@@H]1C[C@H]1C(=O)NC1CC(C)(C)Oc2ccc(OC(F)(F)F)cc21)N1C(=N)NC(C)(C)CC1=O` (stereo partly drawn) [Example 126A] showed a pEC50 of 8.33.

`Cc1ccc2c(c1)[C@@H](NC(=O)[C@@H]1C[C@H]1CN1C(=N)NC(C)(C)CC1=O)CC(C)(C)O2` [Example 128] had a pEC50 of 6.55. Compared with the last compound, the pEC50 is 1.78 log units lower.

On to `CC[C@]1(C)CC(=O)N([C@H](CCOC)[C@@H]2C[C@H]2C(=O)NC2CC(C)(C)Oc3ccc(OC(F)(F)F)cc32)C(=N)N1` (stereo partly drawn) [Example 129A], for which the pEC50 is 8.89.

`COCC[C@H]([C@@H]1C[C@H]1C(=O)NC1CC2(CCC2)Oc2ccccc21)N1C(=N)NC(C)(C)CC1=O` (stereo partly drawn) [Example 131A] showed a pEC50 of 8.17.

Take `COCC[C@H]([C@@H]1C[C@H]1C(=O)N[C@H]1CC(C)(C)Oc2ccc(C)cc21)N1C(=N)NC(C)(C)CC1=O` [Example 132]: the pEC50 is 8.17.

With `COCC[C@H]([C@@H]1C[C@H]1C(=O)N[C@@H]1CC(C)(C)Oc2cc(OC(F)(F)F)ccc21)N1C(=N)NC(C)(C)CC1=O` [Example 134A], the negative-log EC50 (pEC50) is 7.15.

`COCC[C@H]([C@@H]1C[C@H]1C(=O)N[C@H]1CC(C)(C)Oc2cc(OC(F)(F)F)ccc21)N1C(=N)NC(C)(C)CC1=O` [Example 134B] had a pEC50 of 7.60. Compared with the last compound, the pEC50 is 0.45 log units higher.

In the case of `CC1(C)CC(=O)N(C[C@@H]2C[C@H]2C(=O)N[C@H]2CC3(CCC3)Oc3ccccc32)C(=N)N1` [Example 135], the pEC50 was 6.72. This pEC50 lies 0.88 log units lower than the previous one.

Compound `Cc1cc2c(cc1Cl)[C@@H](NC(=O)[C@@H]1C[C@H]1CN1C(=N)NC(C)(C)CC1=O)CC(C)(C)O2` [Example 136] showed a negative logarithm of the EC50 (pEC50) of 6.80.

`COCC[C@H]([C@@H]1C[C@H]1C(=O)N[C@@H]1CC(C)(C)Oc2cc(C)c(Cl)cc21)N1C(=N)NC(C)(C)CC1=O` [Example 137A] had a pEC50 of 7.92.

For the compound `COCC[C@H]([C@@H]1C[C@H]1C(=O)N[C@H]1CC(C)(C)Oc2cc(C)c(Cl)cc21)N1C(=N)NC(C)(C)CC1=O` [Example 137B], the negative-log EC50 (pEC50) is 8.19.

Take `COCC[C@H]([C@@H]1C[C@H]1C(=O)N[C@H]1CC(C)(C)Oc2cc(C)c(C)cc21)N1C(=N)NC(C)(C)CC1=O` [Example 138A]: the pEC50 is 8.13.

As for `COCC[C@H]([C@@H]1C[C@H]1C(=O)N[C@@H]1CC(C)(C)Oc2cc(C)c(C)cc21)N1C(=N)NC(C)(C)CC1=O` [Example 138B], the pEC50 is 7.74.

In the case of `CC1C[C@H](NC(=O)[C@@H]2C[C@H]2CN2C(=N)NC(C)(C)CC2=O)c2cc(F)ccc2O1` (stereo partly drawn) [Example 139A], the pEC50 was 7.00.

In turn, `CC1(C)CC(=O)N(C[C@@H]2C[C@H]2C(=O)N[C@H]2CC(C3CC3)Oc3ccccc32)C(=N)N1` (stereo partly drawn) [Example 140A] had a negative logarithm of the EC50 (pEC50) of 6.66.

Staying with this experiment, now noted: 72 h, 72 hours growth, LDH readout; Table 4 (unit inferred).
`CCC1(CC)CC(=O)N([C@H](CCOC)[C@@H]2C[C@H]2C(=O)N[C@@H]2CC(C)(C)Oc3ccccc32)C(=N)N1` [Example 141]: the pEC50 is 8.33.

`CCC1(CC)CC(=O)N([C@H](CCOC)[C@@H]2C[C@H]2C(=O)N[C@H]2c3ccccc3OC(C)(C)[C@@H]2O)C(=N)N1` [Example 144]: the negative logarithm of the EC50 (pEC50) was 6.78.

`CCC1(CC)CC(=O)N([C@H](CCOC)[C@@H]2C[C@H]2C(=O)N[C@@H]2c3ccccc3OC(C)(C)[C@H]2O)C(=N)N1` [Example 145] showed a pEC50 of 8.08.

For `CCC1(CC)CC(=O)N([C@H](CCOC)[C@@H]2C[C@H]2C(=O)N[C@H]2CC(C)(C)Oc3ccc(Cl)cc32)C(=N)N1` [Example 146], the pEC50 is 8.96.

`CCC1(CC)CC(=O)N([C@H](CCOC)[C@@H]2C[C@H]2C(=O)NC2CC(C)(C)Oc3c(Cl)cccc32)C(=N)N1` (stereo partly drawn) [Example 148A] showed a pEC50 of 8.57.

Take `CCC1(CC)CC(=O)N([C@H](CCOC)[C@@H]2C[C@H]2C(=O)NC2CC(C)(C)Oc3cccc(Cl)c32)C(=N)N1` (stereo partly drawn) [Example 149A]: the pEC50 is 9.00.

In turn, `CCC1(CC)CC(=O)N([C@H](CCOC)[C@@H]2C[C@H]2C(=O)N[C@@H]2c3cc(Cl)ccc3OC(C)(C)[C@H]2O)C(=N)N1` [Example 150] showed a pEC50 of 8.41.

The experiment is the same for the next values; noted with them: 72 hours growth, LDH readout; Table 3.
The compound `COCC[C@H]([C@@H]1C[C@H]1C(=O)NC1CC(C)(C)Oc2c(Cl)cccc21)N1C(=N)NC(C)(C)CC1=O` (stereo partly drawn) [Example 112B] had a pEC50 of 8.03.

`CC1(C)CC(=O)N([C@H](c2cccnc2)[C@@H]2C[C@H]2C(=O)NC2CC(C)(C)Oc3c(Cl)cccc32)C(=N)N1` (stereo partly drawn) [Example 121B] showed a pEC50 of 8.70.

Regarding `CC1(C)CC(=O)N(C[C@@H]2C[C@H]2C(=O)NC2CC(C)(C)Oc3ccc(OC(F)(F)F)cc32)C(=N)N1` (stereo partly drawn) [Example 125B], the pEC50 was 6.80.

Turning to `COCC[C@H]([C@@H]1C[C@H]1C(=O)NC1CC(C)(C)Oc2ccc(OC(F)(F)F)cc21)N1C(=N)NC(C)(C)CC1=O` (stereo partly drawn) [Example 126B], the negative logarithm of the EC50 (pEC50) is 8.08. Against the preceding compound, the pEC50 is 1.28 log units higher.

`CC[C@]1(C)CC(=O)N([C@H](CCOC)[C@@H]2C[C@H]2C(=O)NC2CC(C)(C)Oc3ccc(OC(F)(F)F)cc32)C(=N)N1` (stereo partly drawn) [Example 129B] showed a negative-log EC50 (pEC50) of 8.60.

With `COCC[C@H]([C@@H]1C[C@H]1C(=O)NC1CC2(CCC2)Oc2ccccc21)N1C(=N)NC(C)(C)CC1=O` (stereo partly drawn) [Example 131B], the pEC50 was 8.21. Against the preceding compound, the pEC50 is 0.39 log units lower.

In the case of `CC1C[C@H](NC(=O)[C@@H]2C[C@H]2CN2C(=N)NC(C)(C)CC2=O)c2cc(F)ccc2O1` (stereo partly drawn) [Example 139B], the pEC50 is 6.89.

Regarding `CC1(C)CC(=O)N(C[C@@H]2C[C@H]2C(=O)N[C@H]2CC(C3CC3)Oc3ccccc32)C(=N)N1` (stereo partly drawn) [Example 140B], the negative logarithm of the EC50 (pEC50) was 6.55.

The experiment is the same for the next values; noted with them: 72 hours growth, LDH readout; Table 4 (unit inferred).
For the compound `CCC1(CC)CC(=O)N([C@H](CCOC)[C@@H]2C[C@H]2C(=O)NC2CC(C)(C)Oc3c(Cl)cccc32)C(=N)N1` (stereo partly drawn) [Example 148B], the pEC50 was 8.72.

As to `CCC1(CC)CC(=O)N([C@H](CCOC)[C@@H]2C[C@H]2C(=O)NC2CC(C)(C)Oc3cccc(Cl)c32)C(=N)N1` (stereo partly drawn) [Example 149B], the pEC50 is 8.92.

Values taken from patent publication US12338219B2, “Antimalarial agents” (Merck Sharp & Dohme LLC, priority 2019, dated 2025).
